Patent publication EP0603240B1, “SAFENING HERBICIDAL PYRAZOLYLSULFONYLUREAS” (priority 1991, dated 1993)

Key:
Assay type in all cases: in vivo
[1] = test system: velvetleaf (Abutilon theophrasti); assay: Example 7, Procedure II: Herbicide No. 1 + metolachlor (No. 12) with antidotes
Procedure, shortened: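 Herbicide and antidote in acetone were mixed into silt loam soil used to cover seeded beds, followed by 0.6 cm overhead irrigation, then sub-irrigation in the greenhouse. Percent injury was scored against herbicide-alone and untreated controls, averaged over duplicates. Herbicide No. 1 was combined with metolachlor.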

corn [2] = assay: Example 9, Procedure II: Herbicide No. 1 + pretilachlor (No. 13) with antidotes
Procedure, shortened: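 Corn seeded in silt loam; seed bed covered with soil into which herbicide and antidote (in acetone) were mixed, alongside untreated and herbicide-only controls. Initial overhead irrigation equal to 0.6 cm rainfall, then greenhouse sub-irrigation. Response scored as percent injury; safening as injury difference without vs with antidote.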

[3] = test system: barnyardgrass (Echinochloa crusgalli); assay: Example 21, Procedure II: Herbicide No. 1 + SUTAN PLUS (butylate + antidote) with antidotes
Description: (§1) Containers were filled and compacted with a fumigated silt loam top soil to a depth of about 1.3 cm from the top of the container. A first container was designated as an untreated control, a second container was designated as a herbicide control, and a third container was designated as a herbicide + antidote test container. Each of the containers was seeded with a crop species. A measured amount of herbicide dispersed or dissolved in acetone was applied to a measured quantity of soil. To this same quantity of soil treated with herbicide, there was added a measured amount of antidote dispersed or dissolved in acetone. The quantity of soil treated with the herbicide and antidote was thoroughly mixed to incorporate the herbicide and antidote in the soil uniformly. The seed bed in the third container of soil was covered with the soil treated with the herbicide and antidote and the container was leveled. For each test series, the seed beds of the first and second containers were likewise covered by soil layers. the cover layer of the first container was not treated with herbicide or antidote.
(§2) The containers were then placed on a bench in a greenhouse and sub-irrigated as required for the duration of the test. […] Plant response is measured in terms of percent injury. Antidote efficacy is indicated as the difference in plant injury by the herbicide(s) without the antidote and with the antidote.
(§3) This procedure is the same as Procedure I, but modified in the manner that after incorporation of the chemicals (herbicide and antidote) the containers with the covered seedbed were treated with an initial overhead irrigation equivalent to 0.6 cm rainfall, then subsequently sub-irrigated as required on greenhouse benches.
(§4) In the series of greenhouse tests described below, for routine screening purposes the herbicide/antidote compositions were tested in crop/weed combinations involving corn as the crop and either or both of the weeds barnyardgrass (Echinochloa crusgalli), a monocotyledonous weed, and velvetleaf (Abutilon theophrasti), a dicotyledonous weed. In the tables below, these weeds are indicated by the symbols "BYG" and "VL", respectively.
(§5) In this example, tests were conducted as in the preceding Examples 18-20, except here the co-herbicidal component was SUTAN® PLUS, a commercial product comprising as the active herbicidal ingredient the compound butylate (Herbicide No. 10) and an antidote […] (Antidote No. 1). Again, the antidotal compounds herein were Nos. 1, 2, 7, 13 and 15. Procedure II was used.

[4] = test system: velvetleaf (Abutilon theophrasti); assay: as above
Description: as §1, §2, §3, §4, §5

[5] = test system: Giant foxtail (Setaria fabergi); assay: Example 24, Procedure II: Herbicide No. 1 + co-herbicides Nos. 4, 6, 7, 12 with Antidote Nos. 15 and 17-21
Procedure, shortened: (§6)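 Greenhouse pots, herbicide No. 1 plus co-herbicides and antidote in acetone incorporated into silt loam soil covering the corn seed bed, with giant foxtail and velvetleaf; initial overhead irrigation equal to 0.6 cm rainfall, then sub-irrigation. Antidote at 2.24 kg/ha; percent injury read 13 days after application, duplicate average.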

corn [6] = assay: as above
Procedure, shortened: as §6

[7] = test system: velvetleaf (Abutilon theophrasti); assay: as above
Procedure, shortened: as §6

[8] = Herbicide No.1 0.56 kg/ha + SUTAN + 8.96 kg/ha, antidote 2.24 kg/ha
[9] = Herbicide No.1 0.56 kg/ha + SUTAN + 8.96 kg/ha, antidote 8.96 kg/ha
[10] = Herbicide No.1 1.12 kg/ha + SUTAN + 8.96 kg/ha, antidote 2.24 kg/ha
[11] = Herbicide No.1 1.12 kg/ha + SUTAN + 8.96 kg/ha, antidote 8.96 kg/ha
[12] = Herb. No. 1 0.07 Kg/ha + Co-Herb. No. 4 1.12 Kg/ha + antidote 2.24 Kg/ha
[13] = Herb. No. 1 0.07 Kg/ha + Co-Herb. No. 6 0.14 Kg/ha + antidote 2.24 Kg/ha
[14] = Herb. No. 1 0.07 Kg/ha + Co-Herb. No. 7 0.28 Kg/ha + antidote 2.24 Kg/ha
[15] = Herb. No. 1 0.07 Kg/ha + Co-Herb. No. 12 0.28 Kg/ha + antidote 2.24 Kg/ha
[16] = Herb. No. 1 0.14 Kg/ha + Co-Herb. No. 4 1.12 Kg/ha + antidote 2.24 Kg/ha
[17] = Herb. No. 1 0.14 Kg/ha + Co-Herb. No. 6 0.14 Kg/ha + antidote 2.24 Kg/ha
[18] = Herb. No. 1 0.14 Kg/ha + Co-Herb. No. 7 0.28 Kg/ha + antidote 2.24 Kg/ha
[19] = Herb. No. 1 0.14 Kg/ha + Co-Herb. No. 12 0.28 Kg/ha + antidote 2.24 Kg/ha
[20] = Herb. No. 1 0.28 Kg/ha + Co-Herb. No. 4 1.12 Kg/ha + antidote 2.24 Kg/ha
[21] = Herb. No. 1 0.28 Kg/ha + Co-Herb. No. 6 0.14 Kg/ha + antidote 2.24 Kg/ha
[22] = Herb. No. 1 0.28 Kg/ha + Co-Herb. No. 7 0.28 Kg/ha + antidote 2.24 Kg/ha
[23] = Herb. No. 1 0.28 Kg/ha + Co-Herb. No. 12 0.28 Kg/ha + antidote 2.24 Kg/ha
[24] = Herb. No. 1 0.56 Kg/ha + Co-Herb. No. 4 1.12 Kg/ha + antidote 2.24 Kg/ha
[25] = Herb. No. 1 0.56 Kg/ha + Co-Herb. No. 6 0.14 Kg/ha + antidote 2.24 Kg/ha
[26] = Herb. No. 1 0.56 Kg/ha + Co-Herb. No. 7 0.28 Kg/ha + antidote 2.24 Kg/ha
[27] = Herb. No. 1 0.56 Kg/ha + Co-Herb. No. 12 0.28 Kg/ha + antidote 2.24 Kg/ha

CC1(C)OC(c2ccco2)CN1C(=O)C(Cl)Cl (stereo not shown) [compound 15]
70%: % Injury VL ([1]; Herbicide No.1 0.14 + No.12 3.36 kg/ha + antidote 2.24 kg/ha) | % Injury VL ([1]; Herbicide No.1 0.56 + No.12 3.36 kg/ha + antidote 8.96 kg/ha)
60%: % Injury VL [4, 9] | % Inhibition GFT [5, 20] | % Inhibition GFT [5, 24]
65%: % Injury VL ([1]; Herbicide No.1 0.14 + No.12 3.36 kg/ha + antidote 8.96 kg/ha) | % Injury VL [4, 10] | % Injury VL [4, 11] | % Inhibition GFT [5, 16]
15%: % Injury Corn (corn [2]; Herbicide No.1 0.56 kg/ha + Herbicide No.13 2.24 kg/ha, antidote rate 2.24 kg/ha) | % Injury BYG [3, 10] | % Inhibition Corn (corn [6]; [24])
95%: % Inhibition VL [7, 13] | % Inhibition VL [7, 16] | % Inhibition VL [7, 18] | % Inhibition VL [7, 19] | % Inhibition VL [7, 20] | % Inhibition VL [7, 22] | % Inhibition VL [7, 24]
85%: % Inhibition VL [7, 14] | % Inhibition VL [7, 17]
75%: % Injury VL ([1]; Herbicide No.1 0.56 + No.12 3.36 kg/ha + antidote 2.24 kg/ha)
5%: % Injury Corn (corn [2]; Herbicide No.1 0.14 kg/ha + Herbicide No.13 2.24 kg/ha, antidote rate 2.24 kg/ha) | % Injury Corn (corn [2]; Herbicide No.1 0.56 kg/ha + Herbicide No.13 2.24 kg/ha, antidote rate 8.96 kg/ha) | % Inhibition Corn (corn [6]; [13]) | % Inhibition Corn (corn [6]; [15]) | % Inhibition Corn (corn [6]; [17]) | % Inhibition Corn (corn [6]; [19]) | % Inhibition Corn (corn [6]; [20]) | % Inhibition Corn (corn [6]; [23]) | % Inhibition Corn (corn [6]; [26]) | % Inhibition Corn (corn [6]; [27])
10%: % Injury BYG [3, 9] | % Inhibition Corn (corn [6]; [16]) | % Inhibition Corn (corn [6]; [21]) | % Inhibition Corn (corn [6]; [25])
99%: % Inhibition GFT [5, 15] | % Inhibition GFT [5, 19] | % Inhibition GFT [5, 25] | % Inhibition GFT [5, 27] | % Inhibition VL [7, 25] | % Inhibition VL [7, 27]
0%: % Injury Corn (corn [2]; Herbicide No.1 0.14 kg/ha + Herbicide No.13 2.24 kg/ha, antidote rate 8.96 kg/ha) | % Injury BYG [3, 8] | % Inhibition Corn (corn [6]; [12]) | % Inhibition Corn (corn [6]; [14]) | % Inhibition Corn (corn [6]; [18]) | % Inhibition Corn (corn [6]; [22])
90%: % Inhibition VL [7, 12] | % Inhibition VL [7, 15]
50%: % Injury VL [4, 8]
100%: % Inhibition GFT [5, 13] | % Inhibition GFT [5, 14] | % Inhibition GFT [5, 17] | % Inhibition GFT [5, 18] | % Inhibition GFT [5, 21] | % Inhibition GFT [5, 22] | % Inhibition GFT [5, 23] | % Inhibition GFT [5, 26]
40%: % Injury BYG [3, 11] | % Inhibition GFT [5, 12]
98%: % Inhibition VL [7, 21] | % Inhibition VL [7, 23] | % Inhibition VL [7, 26]
